Laboratory results taken from PMC8951032, “Study of Biological Activities and ADMET-Related Properties of Novel Chlorinated N-arylcinnamamides” (International Journal of Molecular Sciences, 2022).
Values after ≈ are worked out from the molar mass of the structure shown. Read-outs that look alike come from different tables or passages of the source.

Legend:
[1] = tested on: methicillin-resistant S. aureus SA 3202; assay: In vitro antistaphylococcal activity, microtitration broth MIC; type: cell-based; details: Staphylococcus aureus
[2] = tested on: Staphylococcus aureus ATCC 29213; assay: as above; type: cell-based; details: for MIC: Staphylococcus aureus
[3] = tested on: S. aureus, MRSA, E. faecalis, VRE, M. smegmatis, M. marinum; assay: In vitro antimicrobial screening, all tested strains; type: cell-based; details: antibacterial/antimycobacterial screening
[4] = tested on: Mycobacterium marinum CAMP 5644; assay: In vitro antimycobacterial activity, broth dilution MIC; type: cell-based; details: CAMP5644, 504 h
[5] = tested on: porcine monocyte-derived macrophages (MDM); assay: In vitro cell viability, CCK-8; type: cell-based; details: Sus scrofa, Macrophage, 10% fetal bovine serum
Experimental: (§1) The effect of the compounds on viability of eukaryotic cells was evaluated on human leukemia cell line THP-1, human synovial cell line SW982, and isolated primary porcine monocytes-delivered macrophages (MDM). The general cytotoxic effect was studied on THP-1 cells in the serum-free medium (only THP-1 as the only cells used in this study are able to survive in serum-free medium). Most of the compounds had no cytotoxic effect on THP-1 cells. […] This could be caused by the direct interaction of such compounds with serum proteins or by the effect of mitogens, cytokines, and hormones present in the serum. Obviously, the full medium is closer to physiological conditions in living organisms, so it can be assumed that these compounds could be non-toxic there.
Porcine monocyte-derived macrophages (MDMs) were prepared, as described previously. Briefly, blood was collected from three-month-old pigs and peripheral blood mononuclear cells (PBMC) were isolated by gradient centrifugation (830× g, 40 min) using Histopaque-1077 (Sigma). CD14+ cells were isolated by positive magnetic bead selection with LS separation columns (Miltenyi Biotec, Bergisch Gladbach, Germany). Isolated monocytes were cultured in 96-well plates at a concentration of 1 × 10^5 cells per well in 0.2 mL of DMEM supplemented with 10% FBS and 1% antibiotics (Antibiotic Antimycotic Solution 100 × 10,000 units penicillin, 10 mg streptomycin, and 25 μg amphotericin B per mL; Sigma) and incubated for five days at 37 °C in 5% CO2 to differentiate into macrophages. Then, MDMs were cultured for 24 h with tested substances and the relative cell viability was determined by CCK-8 kit (Sigma) following manufacturer instructions.

[6] = tested on: Mycobacterium smegmatis ATCC 700084; assay: In vitro antimycobacterial activity, broth dilution MIC; type: cell-based; details: Mycolicibacterium smegmatis
[7] = tested on: vancomycin-resistant E. faecalis (VRE) 342B; assay: In vitro antienterococcal activity, microtitration broth MIC; type: cell-based, Enterococcus faecalis; details: 24 h
[8] = tested on: methicillin-resistant S. aureus SA 630; assay: In vitro antistaphylococcal activity, microtitration broth MIC; type: cell-based; details: Staphylococcus aureus
[9] = tested on: Enterococcus faecalis ATCC 29212; assay: In vitro antienterococcal activity, microtitration broth MIC; type: cell-based
[10] = tested on: vancomycin-resistant E. faecalis (VRE) 725B; assay: as above; type: cell-based, Enterococcus faecalis; details: 24 h
[11] = tested on: methicillin-resistant S. aureus (MRSA) 63718; assay: In vitro antistaphylococcal activity, microtitration broth MIC; type: cell-based; details: Staphylococcus aureus
[12] = tested on: vancomycin-resistant E. faecalis (VRE) 368; assay: In vitro antienterococcal activity, microtitration broth MIC; type: cell-based, Enterococcus faecalis
[13] = tested on: human monocytic leukemia cell line THP-1; assay: In vitro cell viability, CCK-8; type: cell-based; details: Homo sapiens, THP-1
Experimental: as §1
(§2) Human monocytic leukemia cell line THP-1 and human synovial cell line SW982 were purchased from the European Collection of Cell Cultures (ECACC, Salisbury, UK) and were used for determination of the influence of test compounds on cell viability, as described previously. These cell lines represent typical suspension and adherent cells, respectively. They were cultivated with test substances in the presence or absence of fetal bovine serum (FBS) in the cultivation medium, and the relative cell viability (the ratio between cells treated with compounds and cells treated only with DMSO) was determined by CCK-8 kit (Sigma) after 24 h.

[14] = tested on: human synovial cell line SW982; assay: In vitro cell viability, CCK-8; type: cell-based; details: 10% fetal bovine serum
Experimental: as §1, §2

[15] = 24 h, MRSA SA 3202, read-out: log(1/MIC [M]) MRSA3 (converted)
[16] = MRSA SA 3202, 24 h, read-out: MIC MRSA3
[17] = ATCC29213, 24 h, S. aureus ATCC 29213, read-out: log(1/MIC [M]) SA (converted)
[18] = ATCC29213, S. aureus ATCC 29213, 24 h, read-out: MIC SA
[19] = M. marinum CAMP 5644, 21 days, read-out: MIC MM
[20] = M. marinum CAMP 5644, read-out: log(1/MIC [M]) MM (converted)
[21] = 24 h, read-out: IC50 MDM 10% FSB
[22] = ATCC700084, 72 h, M. smegmatis ATCC 700084, three days, read-out: MIC MS
[23] = ATCC700084, M. smegmatis ATCC 700084, read-out: log(1/MIC [M]) MS (converted)
[24] = read-out: log(1/MIC [M]) VRE1 (converted)
[25] = 24 h, MRSA SA 630, read-out: log(1/MIC [M]) MRSA2 (converted)
[26] = MRSA SA 630, 24 h, read-out: MIC MRSA2
[27] = ATCC29212, 24 h, E. faecalis reference strain, read-out: log(1/MIC [M]) EF (converted)
[28] = ATCC29212, E. faecalis reference strain, 24 h, read-out: MIC EF
[29] = read-out: log(1/MIC [M]) VRE3 (converted)
[30] = 24 h, MRSA 63718, read-out: log(1/MIC [M]) MRSA1 (converted)
[31] = MRSA 63718, 24 h, read-out: MIC MRSA1
[32] = 24 h, VRE 368, read-out: log(1/MIC [M]) VRE2 (converted)
[33] = VRE 368, 24 h, read-out: MIC VRE2
[34] = 10% fetal bovine serum, 24 h, read-out: IC50 THP-1 10% FSB
[35] = 10% fetal bovine serum, read-out: log(1/IC50 [M]) THP-1 10% FSB (converted)
[36] = serum-free medium, 24 h, read-out: IC50 THP-1 SFM
[37] = serum-free medium, read-out: log(1/IC50 [M]) THP-1 SFM (converted)
[38] = 24 h, read-out: IC50 SW982 10% FSB
[39] = read-out: log(1/IC50 [M]) SW982 10% FSB (converted)

Q: How did the MIC [1, 15] turn out when `O=C(/C=C/c1ccc(Cl)c(Cl)c1)Nc1ccc(C(F)(F)F)cc1` [2j, (2E)-3-(3,4-Dichlorophenyl)-N-[4-(trifluoromethyl)phenyl]prop-2-enamide] was run?
A: The MIC was 6.92e-07 M (≈ 0.249 µg/mL).

Q: What about the MIC [1, 16] of the same compound?
A: Its MIC is 6.94e-07 M (≈ 0.25 µg/mL).

Q: And the “activity against S. aureus and MRSA isolates (in words)” value [2]?
A: The value was “submicromolar”.

Q: What about the MIC [2, 17] of the same compound?
A: Its MIC is 6.92e-07 M (≈ 0.249 µg/mL).

Q: And the MIC [2, 18]?
A: Its MIC is 6.94e-07 M (≈ 0.25 µg/mL).

Q: What about the “antimicrobial activity (in words)” value [3] of the same compound?
A: The value was “active”.

Q: And the MIC [4, 19]?
A: The MIC was 2.78e-06 M (≈ 1 µg/mL).

Q: And the MIC [4, 20]?
A: Its MIC is 2.75e-06 M (≈ 0.992 µg/mL).

Q: And the IC50 [5, 21]?
A: The IC50 was over 1e-05 M.

Q: What about the IC50 ([5]; read-out: log(1/IC50 [M]) MDM 10% FSB (converted)) of the same compound?
A: Its IC50 is over 1e-05 M.

Q: What about the MIC [6, 22] of the same compound?
A: Its MIC is 2.78e-06 M (≈ 1 µg/mL).

Q: And the MIC [6, 23]?
A: Its MIC is 2.75e-06 M (≈ 0.992 µg/mL).

Q: What about the MIC ([7]; read-out: MIC VRE1) of the same compound?
A: The MIC was 1.11e-05 M (≈ 4 µg/mL).

Q: And the MIC [7, 24]?
A: The MIC was 1.12e-05 M (≈ 4.04 µg/mL).

Q: What about the MIC [8, 25] of the same compound?
A: Its MIC is 3.72e-07 M (≈ 0.134 µg/mL).

Q: What about the MIC [8, 26] of the same compound?
A: Its MIC is 3.71e-07 M (≈ 0.134 µg/mL).

Q: What about the MIC [9, 27] of the same compound?
A: Its MIC is 1.12e-05 M (≈ 4.04 µg/mL).

Q: And the MIC [9, 28]?
A: The MIC was 1.11e-05 M (≈ 4 µg/mL).

Q: And the MIC ([10]; read-out: MIC VRE3)?
A: Its MIC is 1.11e-05 M (≈ 4 µg/mL).

Q: And the MIC [10, 29]?
A: The MIC was 1.12e-05 M (≈ 4.04 µg/mL).

Q: And the MIC [11, 30]?
A: Its MIC is 3.72e-07 M (≈ 0.134 µg/mL).

Q: And the MIC [11, 31]?
A: The MIC was 3.71e-07 M (≈ 0.134 µg/mL).

Q: What about the MIC [12, 32] of the same compound?
A: Its MIC is 1.12e-05 M (≈ 4.04 µg/mL).

Q: And the MIC [12, 33]?
A: Its MIC is 1.11e-05 M (≈ 4 µg/mL).

Q: And the IC50 [13, 34]?
A: Its IC50 is over 1e-05 M.

Q: And the IC50 [13, 35]?
A: The IC50 was over 1e-05 M.

Q: What about the IC50 [13, 36] of the same compound?
A: Its IC50 is 9e-07 ± 1e-06 M.

Q: And the IC50 [13, 37]?
A: The IC50 was 8.91e-07 M.

Q: What about the IC50 [14, 38] of the same compound?
A: The IC50 was over 1e-05 M.

Q: And the IC50 [14, 39]?
A: Its IC50 is over 1e-05 M.

Q: What does the source list for `O=C(/C=C/c1ccc(Cl)c(Cl)c1)Nc1cc(C(F)(F)F)cc(C(F)(F)F)c1` [2q, (2E)-N-[3,5-bis(Trifluoromethyl)phenyl]-3-(3,4-dichlorophenyl)prop-2-enamide]?
A: MIC [1, 15]: 2.95e-07 M (≈ 0.126 µg/mL); MIC [1, 16]: 2.92e-07 M (≈ 0.125 µg/mL); activity against S. aureus and MRSA isolates (in words) [2]: submicromolar; MIC [2, 17]: 1.32e-06 M (≈ 0.564 µg/mL); MIC [2, 18]: 2.92e-07 M (≈ 0.125 µg/mL); antimicrobial activity (in words) [3]: active; MIC [4, 19]: 2.92e-07 M (≈ 0.125 µg/mL); MIC [4, 20]: 2.63e-06 M (≈ 1.13 µg/mL); IC50 [5, 21]: 5e-06 to 1e-05 M; MIC [6, 22]: 2.34e-06 M (≈ 1 µg/mL); MIC [6, 23]: 1.07e-05 M (≈ 4.59 µg/mL); MIC ([7]; read-out: MIC VRE1): 9.34e-06 M (≈ 4 µg/mL); MIC [7, 24]: 9.33e-06 M (≈ 4 µg/mL); MIC [8, 25]: 1.35e-07 M (≈ 0.0578 µg/mL); MIC [8, 26]: 1.36e-07 M (≈ 0.0582 µg/mL); MIC [9, 27]: 1.07e-05 M (≈ 4.59 µg/mL); MIC [9, 28]: 4.67e-06 M (≈ 2 µg/mL); MIC ([10]; read-out: MIC VRE3): 4.67e-06 M (≈ 2 µg/mL); MIC [10, 29]: 4.68e-06 M (≈ 2 µg/mL); MIC [11, 30]: 1.35e-07 M (≈ 0.0578 µg/mL); MIC [11, 31]: 1.36e-07 M (≈ 0.0582 µg/mL); MIC [12, 32]: 1.86e-05 M (≈ 7.97 µg/mL); MIC [12, 33]: 1.87e-05 M (≈ 8 µg/mL); IC50 [13, 34]: > 1e-05 M; IC50 [13, 35]: > 1e-05 M; IC50 [13, 36]: 5e-07 ± 1e-06 M; IC50 [13, 37]: 1e-06 M; IC50 [14, 38]: > 1e-05 M; IC50 [14, 39]: > 1e-05 M
